# Data reported in patent US8859018B2, “Delivery carrier for antimicrobial essential oils” (Nestec S.A., priority 2010, dated 2014).
# Test system: Zygosaccharomyces bailii (yeast)
# Experiment: Challenge test with yeasts in MOS / MAS
# Assay type: cell-based
# Conditions: for Week 0 (Log cfu/g) / Week 1 (Log cfu/g) / Week 2 (Log cfu/g) / Week 3 (Log cfu/g) / Week 4 (Log cfu/g): 0.10%
# Method: Target microorganisms used for the challenge tests (CT) were Zygosaccharomyces bailii (yeast), Aspergillus niger (mould), Penicillium nalgiovense (mould) and Eurotium amstelodami (mould).
# Stock culture of the yeast was revived on MEB. The inoculated broths were incubated at 30° C. for 48-72 hours with constant swirling. The broth cultures were further sub-cultured in the MEB and incubated similarly at 30° C. for 48-72 hours with constant swirling. The final broth cultures were then analyzed for total yeast counts on MEA plate as well as for microbial contamination on PCA by spread plat 0.1-0.5 ml of suspension onto the agar plates respectively. Before the challenge test is initiated, the broth inoculated with yeast was diluted aseptically with sterile Tryptone Salt 0.1% to the desired level such that the inoculation level in the product would be 2-3 log of colony-forming-units (cfu) of yeast per gram (Cfu: colony forming units).
# Challenge Test with yeasts was according to the following steps: 1) Add 100 g of MOS into a 250 ml sterile Schott bottle with screw-cap cover; 2) Add 0.1 ml to 2 ml of yeast (Z. bailii) inoculum to meet the target inoculum of 10^2 to 10^3 cfu/g of MOS into the 100 g MOS and shake to mix well; 3) Pour 35 g of the inoculated MOS into two 150 ml sterile disposable polypropylene container with screw-cap cover; 4) Pipette 1 g of inoculated MOS into 9 ml sterile Tryptone Salt 0.1% diluent and vortex. Perform this in duplicate; 5) Plate 0.1 ml to 0.5 ml of inoculated Tryptone Salt 0.1% onto MEA at appropriate dilutions by Spread Plate Method. Incubate the plates at 30° C. for 3 days for the enumeration of the initial yeast count; 6) Incubate the inoculated MOS in 150 ml containers at 30° C. for a week; 7) After one week, repeat steps 4 to 6 for the weekly monitoring of Z. bailii growth behavior in MOS. Perform the monitoring for a period of 4 weeks; 8) The control was prepared by repeating steps 3 to 7 without using any inoculum.
# The method for producing MAS was the same as for the MOS production in experiment 4. The preparation of the microorganism cultures as well as the challenge tests were identical to the ones described in experiment 4 as well.
# [1] = MAGGI Abalone Sauce, age 0 month
# [2] = MAGGI Abalone Sauce, age 1 month
# [3] = MAGGI Abalone Sauce, age 3 month
# [4] = MAGGI Abalone Sauce, age 6 month
# [5] = MAGGI Abalone Sauce, age 10 month
# [6] = MAGGI Abalone Sauce, age 12 month
# [7] = MAGGI Oyster Sauce, age 0 month
smiles,measurement,setting,value
"C/C=C/C=C/C(=O)[O-].[K+] [KS, potassium sorbate]",Week 0 (Log cfu/g),[1],<1.00 Log cfu/g
same,Week 1 (Log cfu/g),[1],<1.00 Log cfu/g
same,Week 2 (Log cfu/g),[1],<1.00 Log cfu/g
same,Week 3 (Log cfu/g),[1],<1.00 Log cfu/g
same,Week 4 (Log cfu/g),[1],<1.00 Log cfu/g
same,Week 0 (Log cfu/g),[2],<1.00 Log cfu/g
same,Week 1 (Log cfu/g),[2],<1.63 Log cfu/g
same,Week 2 (Log cfu/g),[2],<1.00 Log cfu/g
same,Week 3 (Log cfu/g),[2],<1.00 Log cfu/g
same,Week 4 (Log cfu/g),[2],<1.00 Log cfu/g
same,Week 0 (Log cfu/g),[3],2.96 Log cfu/g
same,Week 1 (Log cfu/g),[3],<1.00 Log cfu/g
same,Week 2 (Log cfu/g),[3],<1.00 Log cfu/g
same,Week 3 (Log cfu/g),[3],<1.00 Log cfu/g
same,Week 4 (Log cfu/g),[3],<1.00 Log cfu/g
same,Week 0 (Log cfu/g),[4],2.13 Log cfu/g
same,Week 1 (Log cfu/g),[4],<1.00 Log cfu/g
same,Week 2 (Log cfu/g),[4],<1.00 Log cfu/g
same,Week 3 (Log cfu/g),[4],<1.00 Log cfu/g
same,Week 4 (Log cfu/g),[4],<1.00 Log cfu/g
same,Week 0 (Log cfu/g),[5],4.43 Log cfu/g
same,Week 1 (Log cfu/g),[5],<2.00 Log cfu/g
same,Week 2 (Log cfu/g),[5],<1.00 Log cfu/g
same,Week 3 (Log cfu/g),[5],<1.00 Log cfu/g
same,Week 4 (Log cfu/g),[5],<1.00 Log cfu/g
same,Week 0 (Log cfu/g),[6],2.84 Log cfu/g
same,Week 1 (Log cfu/g),[6],1.72 Log cfu/g
same,Week 2 (Log cfu/g),[6],<1 Log cfu/g
same,Week 3 (Log cfu/g),[6],<1 Log cfu/g
same,Week 4 (Log cfu/g),[6],<1 Log cfu/g
same,yeast growth,"MAGGI Abalone Sauce, up to 12 months, KS 0.10%, clove leaf oil 0.06 wt % and 0.15 wt %",not detected
same,Week 0 (Log cfu/g),[7],3.544 Log cfu/g
same,Week 1 (Log cfu/g),[7],<1.00 Log cfu/g
same,Week 2 (Log cfu/g),[7],<1.00 Log cfu/g
same,Week 3 (Log cfu/g),[7],<1.00 Log cfu/g
same,Week 4 (Log cfu/g),[7],<1.00 Log cfu/g
